Assay results: patent publication US10787448B2, “Indolizino [3,2-C] quinoline-based fluorescent probe” (SEOUL NATIONAL UNIVERSITY R & DB FOUNDATION, priority 2015, dated 2020)
“Also recorded” adds a separate entry of the source.

Key:
[1] = Photostability of fluorescence in aqueous solution or ethanol (natural light, blue light); type: physicochemical; conditions: aqueous solution; for stability of fluorescence under irradiation with blue light: blue light for 2 hours; for photostability: fluorescence over time: natural light, up to 6 hours
Procedure: As a candidate material that can be applied to a fluorescent probe, to confirm how long fluorescence persists in materials with high fluorescence intensity in an aqueous solution among the indolizino[3,2-c]quinoline compounds, photostability according to time in an aqueous solution or ethanol solvent was evaluated as follows.
First, fluorescence of a corresponding material was measured using a cuvette, and the fluorescence per time for the cuvette sample was remeasured until 6 to 7 hours in a natural light state so as to confirm fluorescence stability.
Further, from the above example, when the indolizino[3,2-c]quinoline compounds including the IQ 3, 4, 6 and 8 compounds in which the fluorescence is stably maintained in an aqueous solution for approximately 6 hours are represented by Formula X, some materials in which neither A, B, C nor D ring has a substituent were selected and irradiated with blue light in an aqueous solution, and then a stability experiment was carried out to confirm the maintenance of the fluorescence.

[2] = biological target: Human Serum Albumin (HSA) (Homo sapiens, UniProt P02768); assay: Protein binding by fluorescence change (FRET, Job's plot, titration, quantum yield)
Human Serum Albumin (HSA), sequence (P02768 25-609): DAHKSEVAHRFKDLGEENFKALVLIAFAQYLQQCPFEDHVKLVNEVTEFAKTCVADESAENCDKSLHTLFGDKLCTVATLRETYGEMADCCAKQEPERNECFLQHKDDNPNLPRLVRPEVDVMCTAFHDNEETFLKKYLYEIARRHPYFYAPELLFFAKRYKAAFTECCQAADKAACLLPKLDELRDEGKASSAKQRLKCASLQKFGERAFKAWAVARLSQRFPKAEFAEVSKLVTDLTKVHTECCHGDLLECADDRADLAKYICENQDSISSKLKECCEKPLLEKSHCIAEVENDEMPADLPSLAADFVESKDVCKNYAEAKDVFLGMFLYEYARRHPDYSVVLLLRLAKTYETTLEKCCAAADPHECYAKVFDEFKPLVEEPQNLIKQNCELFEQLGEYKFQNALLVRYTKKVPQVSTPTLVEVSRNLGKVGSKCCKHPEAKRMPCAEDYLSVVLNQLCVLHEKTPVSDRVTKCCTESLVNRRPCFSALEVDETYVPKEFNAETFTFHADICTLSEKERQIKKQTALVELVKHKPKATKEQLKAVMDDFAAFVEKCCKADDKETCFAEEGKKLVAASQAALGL
Procedure: Using a fluorescence spectrophotometer, it was confirmed whether the indolizino[3,2-c]quinoline compound of the present invention binds to a protein. Specifically, among the indolizino[3,2-c]quinoline compounds, 13 types of compounds with high fluorescence in a Tris buffer (pH 7.5) were added to Bovine Serum Albumin (BSA) and Human Serum Albumin (HSA) to observe a fluorescence change.

HeLa cells = assay: Cell permeability: fluorescence imaging and live cell confocal imaging; type: cell-based
Procedure: HeLa cells were seeded in a 96-well plate and incubated for 24 hours. The cells were treated with the indolizino[3,2-c]quinoline compounds, and incubated at 37° C. under a 5% CO2 condition for 30 minutes. After removal of the medium, the cells were washed with 1×DPBS. The washed cells were fixed with 4% formaldehyde at room temperature for 10 minutes, and washed with 1×DPBS. A cell image was screened using an Operetta HTS imaging system (PerkinElmer).
After HeLa cells were seeded to account for 70 to 80% of the area of a confocal dish (SPL life science) and overnight cultured, the indolizino[3,2-c]quinoline compounds (10 μM) prepared by mixing fresh DMEM after removal of the existing DMEM medium were dispensed, and the cells were incubated for 30 minutes to 1 hour at 37° C. Afterward, if needed, LysoTracker (50 nM) was mixed with DMEM to remove the existing medium and then dispensed to the cells, and the cells were incubated for 30 minutes at 37° C. After incubation, without washing, the cells were examined by a confocal laser microscope (Leica TCS SP8 SMD, Leica, Mannheim, Germany). However, when co-stained with a LysoTracker, the cells were washed with DPBS twice before the microscopy. […]

[3] = Analysis of optical characteristics (absorption, fluorescence emission, quantum yield) in solvents; type: physicochemical; conditions: for Fluorescence Emission Intensity / Peak emission wavelength λmax em(nm) / Relative fluorescence Emission Intensitynorm: H2O at 2 μM; for Peak emission wavelength λmax em(nm): excited at the longest absorption maxima; for Relative fluorescence Emission Intensitynorm: normalized fluorescence intensity
Procedure: Fluorescence emission spectra were obtained at 20° C. using a JASCO FP-6500 spectrofluorometer, a 10 mM stock solution prepared by dissolving an indolizino[3,2-c]quinoline compound in DMSO was diluted in a solvent. […] Absorption spectra were recorded at room temperature using a Perkin Elmer Lamda 20 UV/VIS spectrometer. […]
Further, the compounds (excluding Entry #51-57, etc.) of Formula 1 were subjected to spectrum analyses in various solvents, and the results are shown in Tables 6 and 7, and FIGS. 5C and 5D.

[4] = test system: DNA oligomers (48 bp) tetO sequences; assay: Binding to DNA by fluorescence spectrophotometer; conditions: hybridized tetO DNA oligomers added, 1 minute incubation
Procedure: Using a fluorescence spectrophotometer, it was confirmed whether the indolizino[3,2-c]quinoline compound of the present invention binds to DNA. First, DNA oligomers (48 bp) used in the experiment are tetO sequences, and the base sequences thereof are as follows.
The same molarities of oligomers were mixed while being heated at 95° C. for 5 minutes and cooled to room temperature for 2 hours to hybridize, the fluorescence of each of the indolizino[3,2-c]quinoline compounds of the present invention was measured, a corresponding equivalent of DNA oligomer was added to a cuvette, and then incubated while blocking light for 1 minute to measure fluorescence again.

Cc1ccc(-c2nc3ccccc3c3cc4ccccn4c23)cc1 [IQ 3, 6-(p-tolyl)indolizino[3,2-c]quinoline]
stability of fluorescence under irradiation with blue light [1]: still stably exhibited fluorescence intensity
photostability: fluorescence over time [1]: stably maintained in an aqueous solution up to 6 hours with almost no change
fluorescence change on binding to HSA [2]: increasing fluorescence intensity

c1ccc(-c2nc3ccccc3c3cc4ccccn4c23)cc1 [IQ 4, 6-phenylindolizino[3,2-c]quinoline]
stability of fluorescence under irradiation with blue light [1]: still stably exhibited fluorescence intensity
photostability: fluorescence over time [1]: stably maintained in an aqueous solution up to 6 hours with almost no change
fluorescence change on binding to HSA [2]: increasing fluorescence intensity

c1ccc(-c2nc3ccccc3c3cc4ccccn4c23)nc1 [IQ 5, 6-(pyridin-2-yl)indolizino[3,2-c]quinoline]
stability of fluorescence under irradiation with blue light [1]: still stably exhibited fluorescence intensity

COc1cc(OC)cc(-c2nc3ccccc3c3cc4ccccn4c23)c1 [IQ 7, 6-(3,5-Dimethoxyphenyl)indolizino[3,2-c]quinoline]
fluorescence change on binding to HSA [2]: fluorescence intensity became higher than the fluorescence of the material; also recorded: increasing fluorescence intensity
quantum yield (QY) when bound to HSA [2]: 0.43
emission after adding 1 equiv. of the compound to HSA ([2]; excited at 280 nm): approximately 450 nm
emission of the compound ([2]; excited at 280 nm): approximately 500 nm
FRET with HSA ([2]; excited at 280 nm, 1 equiv. of compound): fluorescence resonance energy transfer (FRET) phenomenon occurred
Kd ([2]; titration): 1890 nM
intracellular organelles in which fluorescence is detected (HeLa cells; HeLa cells): stained intensively in the nuclear area

COc1ccc(-c2nc3ccccc3c3cc4ccccn4c23)cc1OC [IQ 8, 6-(3,4-dimethoxyphenyl)indolizino[3,2-c]quinoline]
photostability: fluorescence over time [1]: stably maintained in an aqueous solution up to 6 hours with almost no change
fluorescence change on binding to HSA [2]: increasing fluorescence intensity
intracellular organelles in which fluorescence is detected (HeLa cells; HeLa cells): stained intensively in the nuclear area

c1ccc2c(-c3nc4ccccc4c4cc5ccccn5c34)cccc2c1 [IQ 9, 6-(naphthalen-1-yl)indolizino[3,2-c]quinoline]
fluorescence (intensity, in words) [3]: strong fluorescence
solvent-dependent (environment-sensitive) tendency of the emission [3]: solvatochromic effect
peak emission (λmax) ([3]; aqueous solution (H2O)): 465.5 nm
peak emission (λmax) ([3]; ethanol solvent (EtOH)): 516 nm
quantum yield ([3]; in ethanol using coumarin 153 as a standard): 0.402
fluorescence change on binding to HSA [2]: increasing fluorescence intensity

c1ccc2cc(-c3nc4ccccc4c4cc5ccccn5c34)ccc2c1 [IQ 10, 6-(naphthalen-2-yl)indolizino[3,2-c]quinoline]
fluorescence change on binding to HSA [2]: increasing fluorescence intensity

COc1ccc(-c2nc3ccccc3c3cc4c(C)cccn4c23)cc1OC [IQ 17, 6-(3,4-dimethoxyphenyl)-11-methylindolizino[3,2-c]quinoline]
fluorescence change on binding to HSA [2]: increasing fluorescence intensity
quantum yield (QY) when bound to HSA [2]: 0.4
intracellular molecule recognized (HeLa cells; HeLa cells): recognized DNA
intracellular organelles in which fluorescence is detected (HeLa cells; HeLa cells): stained intensively in the nuclear area

COc1ccc(-c2nc3ccccc3c3c(Cl)c4ccccn4c23)cc1 [IQ 40, 12-chloro-6-(4-methoxyphenypindolizino[3,2-c]quinoline]
fluorescence change on binding to HSA [2]: increasing fluorescence intensity

COc1ccc(-c2nc3ccccc3c3cc4cc(-c5ccc(N(C)C)cc5)ccn4c23)cc1 [IQ-B37, 4-(6-(4-methoxyphenyl)indolizino[3,2-c]quinolin-10-yl)-N,N-dimethylaniline]
λex(nm) ([3]; Table 7): 432 nm
detection with yellow and red wavelength filters (HeLa cells; live HeLa cells, ex 514 nm, em 519 nm and ex 561 nm, em 566 nm): detected

COc1ccc(-c2nc3ccccc3c3cc4c(C)cccn4c23)cc1OC [compound 17]
Maximum absorption wavelength λmax abs(nm) [3]: 391 nm
quantum yield (Φ) ([3]; DW, standard Rhodamine 6G): 0.065
quantum yield (Φ) ([3]; EtOH, standard Coumarin 153): 0.604
Fluorescence Emission Intensity [3]: 31.7
Peak emission wavelength λmax em(nm) [3]: 524.5 nm
Relative fluorescence Emission Intensitynorm [3]: 0.14
shift of maximum emission wavelength on addition of DNA oligomer [4]: wavelength to longer wavelength

Cc1cccn2c1cc1c3ccccc3nc(-c3ccco3)c12 [compound 18]
Maximum absorption wavelength λmax abs(nm) [3]: 400 nm
quantum yield (Φ) ([3]; DW, standard Rhodamine 6G): 0.008
quantum yield (Φ) ([3]; EtOH, standard Coumarin 153): 0.421
Fluorescence Emission Intensity [3]: 15.0
Peak emission wavelength λmax em(nm) [3]: 523.5 nm
Relative fluorescence Emission Intensitynorm [3]: 0.06
shift of maximum emission wavelength on addition of DNA oligomer [4]: wavelength to shorter wavelength

COC(=O)c1c2c3ccccc3nc(-c3cc(OC)cc(OC)c3)c2n2ccccc12 [compound 19]
quantum yield (Φ) ([3]; DW, standard Rhodamine 6G): 0.060
quantum yield (Φ) ([3]; EtOH, standard Coumarin 153): 0.222
Fluorescence Emission Intensity [3]: 80.5
Peak emission wavelength λmax em(nm) [3]: 478 nm
Relative fluorescence Emission Intensitynorm [3]: 0.35
shift of maximum emission wavelength on addition of DNA oligomer [4]: wavelength to shorter wavelength

CN(C)c1ccc(-c2nc3ccccc3c3cc4ccccn4c23)cc1 [compound 36]
quantum yield (Φ) ([3]; DW, standard Rhodamine 6G): 0.006
quantum yield (Φ) ([3]; EtOH, standard Coumarin 153): 0.386
shift of maximum emission wavelength on addition of DNA oligomer [4]: wavelength to longer wavelength

CCN(CC)c1ccc(-c2nc3ccccc3c3cc4ccccn4c23)cc1 [compound 37]
quantum yield (Φ) ([3]; DW, standard Rhodamine 6G): 0.001
quantum yield (Φ) ([3]; EtOH, standard Coumarin 153): 0.324
shift of maximum emission wavelength on addition of DNA oligomer [4]: wavelength to longer wavelength

COc1ccc(-c2nc3ccccc3c3c(Cl)c4ccccn4c23)cc1 [compound 40]
quantum yield (Φ) ([3]; DW, standard Rhodamine 6G): 0.142
quantum yield (Φ) ([3]; EtOH, standard Coumarin 153): 0.624
change in fluorescence intensity on addition of DNA oligomer [4]: Increase in fluorescence intensity

c1csc(-c2nc3ccccc3c3cc4ccccn4c23)c1 [compound 42]
shift of maximum emission wavelength on addition of DNA oligomer [4]: wavelength to shorter wavelength

COC(=O)c1c2c3ccccc3nc(-c3cccs3)c2n2ccccc12 [compound 44]
quantum yield (Φ) ([3]; DW, standard Rhodamine 6G): 0.010
quantum yield (Φ) ([3]; EtOH, standard Coumarin 153): 0.050
shift of maximum emission wavelength on addition of DNA oligomer [4]: wavelength to shorter wavelength

COc1ccc(-c2nc3ccccc3c3c(-c4ccc(F)cc4)c4ccccn4c23)cc1 [compound 45]
quantum yield (Φ) ([3]; DW, standard Rhodamine 6G): 0.033
quantum yield (Φ) ([3]; EtOH, standard Coumarin 153): 0.557
change in fluorescence intensity on addition of DNA oligomer [4]: No change in fluorescence intensity

COc1ccc(-c2nc3ccccc3c3c(-c4ccc(Cl)cc4)c4ccccn4c23)cc1 [compound 46]
quantum yield (Φ) ([3]; DW, standard Rhodamine 6G): 0.039
quantum yield (Φ) ([3]; EtOH, standard Coumarin 153): 0.604
change in fluorescence intensity on addition of DNA oligomer [4]: No change in fluorescence intensity
